The source of these data is patent publication US20190321345A1, “GLUT4 Selective Inhibitors for Cancer Therapy” (Emory University, priority 2016, published 2019).

The test system of one test is KMS11-GFP cells. The experiment in a line: Proliferation of KMS11-GFP myeloma cells (Cell Titre Glo). Conditions: for EC50: inhibition of proliferation, 72 hours, Cell Titre Glo; for impact on proliferation in KMS11-GFP cells compared with KMS11-GLUT1 cells: isogenic cell line pair. The test is classed as cell-based. How it is done: (§1) IC50 studies were performed using the CellTiter-Glo assay (Promega, Madison, Wis.). 20,000 cells in 100 ul complete RPMI 1640 medium were plated per well in 96-well plates, with a concentration range of individual compounds. After 72 h incubation, 100 uL Glo reagent were added to each well and luminescence was measured using a Biotek Synergy 4 multimode plate reader. Cell number was assessed by trypan blue standing and an automatic cell counter (Biorad). For cell viability assays 0.125×10^6 cells/mL were treated with the indicated concentration of drug, washed with 1×PBS and evaluated for viability by AnnexinV/DAPI staining and flow cytometry. Data analysis was per-formed with the FCS express version 3 (De Novo software, Los Angeles).
(§2) Compound were selected as a lead based on its low IC50, selectivity for inhibition of glucose transport through GLUT4, and inhibition of the KMS11-GFP cell line proliferation in contrast to the GLUT1 expressing isogenic line. Compounds were assessed in a high-throughput proliferation-based assay using an isogenic MM (KMS11) cell line pair overexpressing GLUT1 or GFP (as a control) (model of screen is depicted in FIG. 2A). […] Isogenic KMS11-GFP/GLUT1 overexpressing myeloma cell lines were treated with a dose range of the indicated test compound for 72 hours followed by evaluation of viable cell number by Cell Titre Glo assay

For the next test, the system named is KMS11-GLUT1 cells. In words: Proliferation of KMS11-GLUT1 myeloma cells (Cell Titre Glo). The test is classed as cell-based. The note with it: inhibition of proliferation, 72 hours. As for the experimental part: as §1, §2

The structures appear in SMILES notation.

With `COc1ccc(C(=O)N(Cc2ccncc2)Cc2cccc(OCCc3ccc(C)cc3)c2)cc1` [Compound 7, 4-Methoxy-N-(3-(4-methylphenethoxy)benzyl)-N-(pyridin-4-ylmethyl)benzamide], the EC50 was determined as 9.1 µM in the test with KMS11-GFP cells and 12.7 µM in the test on KMS11-GLUT1 cells.
For `COc1ccc(C(=O)N(Cc2ccncc2)Cc2cccc(OCCc3cccc(C(F)(F)F)c3)c2)cc1` [Compound 8, 4-Methoxy-N-(pyridin-4-ylmethyl)-N-(3-(3-(trifluoromethyl)phenethoxy)benzyl)benzamide], the results for the concentration giving a half-maximal response (EC50) in the test on KMS11-GFP cells and with KMS11-GLUT1 cells were 8.9 µM and 15.1 µM, respectively. Besides, the “impact on proliferation in KMS11-GFP cells compared with KMS11-GLUT1 cells” value in the test with KMS11-GFP cells was “greater impact on proliferation in KMS11-GFP cells”.
On to `COc1ccc(C(=O)N(Cc2ccncc2)Cc2cccc(OCC3CCOCC3)c2)cc1` [Compound 9, 4-Methoxy-N-(pyridin-4-ylmethyl)-N-(3-((tetrahydro-2H-pyran-4-yl)methoxy)benzyl)benzamide], for which, in the test on KMS11-GFP cells, the EC50 was found to be 17.7 µM and the “impact on proliferation in KMS11-GFP cells compared with KMS11-GLUT1 cells” value is “greater impact on proliferation in KMS11-GFP cells”. Also, the EC50 with KMS11-GLUT1 cells was found to be 25.8 µM.
With `COc1ccc(C(=O)N(Cc2ccncc2)Cc2cccc(OCCc3ccccc3)c2)cc1` [Compound 10, 4-Methoxy-N-(3-phenethoxybenzyl)-N-(pyridin-4-ylmethyl)benzamide], the figures for the EC50 with KMS11-GFP cells and in the test with KMS11-GLUT1 cells were 16.9 µM and 21 µM, respectively.
Consider `COc1ccc(C(=O)N(Cc2ccncc2)Cc2cccc(OCC3CCN(C(=O)OC(C)(C)C)CC3)c2)cc1` [Compound 11, Tert-butyl 4-((3-((4-methoxy-N-(pyridin-4-ylmethyl)benzamido)methyl)phenoxy)methyl)piperidine-1-carboxylate], for which the EC50 in the test with KMS11-GFP cells stood at 5.1 µM; with KMS11-GLUT1 cells, 4.9 µM.
The matching figures for `COc1ccc(C(=O)N(Cc2ccncc2)Cc2cccc(OCC3CCCCC3)c2)cc1` [Compound 12, N-(3-(cyclohexylmethoxy)benzyl)-4-methoxy-N-(pyridin-4-ylmethyl)benzamide]: 19.7 µM and 16 µM.
Taken in the same sequence, the figures for `COc1ccc(C(=O)N(Cc2ccncc2)Cc2cccc(OCCc3ccc(Br)cc3)c2)cc1` [Compound 13, N-(3-(4-bromophenethoxy)benzyl)-4-methoxy-N-(pyridin-4-ylmethyl)benzamide] were 8.4 µM and 6.5 µM.
Taken in the same sequence, the figures for `COc1ccc(C(=O)N(Cc2ccncc2)Cc2cccc(OCc3ccc([N+](=O)[O-])cc3)c2)cc1` [Compound 14, 4-Methoxy-N-(3-((4-nitrobenzyl)oxy)benzyl)-N-(pyridin-4-ylmethyl)benzamide] were 15.4 µM and 11.7 µM.
Turning to `COc1ccc(C(=O)N(Cc2ccncc2)Cc2cccc(OCc3ccc(C(F)(F)F)cc3)c2)cc1` [Compound 15], the EC50 turned out to be 14.3 µM in the test on KMS11-GFP cells and 16.8 µM in the test on KMS11-GLUT1 cells.
For the compound `COc1ccc(C(=O)N(Cc2ccncc2)Cc2cccc(OCc3ccc(F)cc3)c2)cc1` [Compound 16, N-(3-((4-fluorobenzyl)oxy)benzyl)-4-methoxy-N-(pyridin-4-ylmethyl)benzamide], the EC50 in the test on KMS11-GFP cells came to 22.7 µM; in the test with KMS11-GLUT1 cells, 28.6 µM.
The matching figures for `COc1ccc(C(=O)N(Cc2ccncc2)Cc2cccc(OCC(=O)c3ccc(Cl)cc3)c2)cc1` [Compound 18, N-(3-(2-(4-chlorophenyl)-2-oxoethoxy)benzyl)-4-methoxy-N-(pyridin-4-ylmethyl)benzamide]: 18.5 µM and 16.9 µM.
Take `O=C(c1ccc(Cl)cc1)N(Cc1ccncc1)Cc1cccc(OCCc2ccc(F)cc2)c1` [Compound 19, 4-Chloro-N-(3-(4-fluorophenethoxy)benzyl)-N-(pyridin-4-ylmethyl)benzamide]: the figures for the EC50 with KMS11-GFP cells and in the test with KMS11-GLUT1 cells were 13.1 µM and 15.6 µM, respectively.
`COc1ccc(C(=O)N(Cc2ccncc2)Cc2cccc(OCC(=O)c3cccc(Br)c3)c2)cc1` [Compound 21, N-(3-(2-(3-bromophenyl)-2-oxoethoxy)benzyl)-4-methoxy-N-(pyridin-4-ylmethyl)benzamide]: the EC50 in the test with KMS11-GFP cells was 18.7 µM; in the test on KMS11-GLUT1 cells, 21.4 µM.
The matching figures for `COc1ccc(C(=O)N(Cc2ccncc2)Cc2cccc(OCc3cccc([N+](=O)[O-])c3)c2)cc1` [Compound 22, 4-Methoxy-N-(3-((3-nitrobenzyl)oxy)benzyl)-N-(pyridin-4-ylmethyl)benzamide]: 19.6 µM and 20.6 µM.
